Assay results taken from patent publication US12215085B2 (priority 2019, dated 2025).

Key:
[1] = tested on: rats with common carotid artery occlusion-induced vascular dementia; experiment: Water maze test, common carotid artery occlusion-induced vascular dementia rats; type: in vivo, rat; settings: succinate; for orientation angle for reaching the platform / speed for reaching the platform / swimming path length for reaching the platform / time for reaching the platform: x ± s; for Average speed / Number of crossing the platform / Orientation angle / Swimming path length in the platform area/total swimming path length × 100% / Time in the platform area / Time in the platform quadrants: Day 7
Excerpt: (§1) A rat blood vessel dementia model was made according to the references [ZHAO Xian-lin, FANG Xiu-bin, LI Dong-pei. Establishment of Vascular Dementia Model in Rats, J Chin Med Univ, 2002, 31 (3): 166-168; WANG Yong-yan, Zhang Bo-li, Editor-in-chief. Modern Chinese Medicine Clinic and Research on Vascular Dementia, People's Medical Publishing House, October 2003, First Version 214]: Chloral hydrate 0.4 g/kg was intraperitoneally injected for anesthetizing rats, and bilateral common carotid arteries were isolated and ligated. The animals were fed for 16 weeks, divided into groups on the last 7 days, and administered. The normal control group and the model group were administrated through the intragastric route with distilled water by 0.5 ml/100 g, the positive control group was administrated through the intragastric route with donepezil hydrochloride by 1.75 mg/kg (equivalent to 3.85 times the clinical daily dosage of 5 mg/70 kg), the low, medium and high-dose groups of Crystal Form A of octahydroaminoacridine succinate were administrated through the intragastric route with Crystal Form A of octahydroaminoacridine succinate by 0.7, 1.4 and 2.8 mg/kg (equivalent to 0.96, 1.92 and 3.85 times the clinical daily dosage of 8 mg/70 kg). The water maze test and the step-down test were carried out after continuous administration for 7 days, and the administration was continued during the test period. The water maze test was continuously performed for 7 days, in the first 6 days, in four different water entry points of quadrants 1, 2, 3 and 4, the time, the swimming path length, the orientation angle and the average speed of the rat reaching the platform were measured, meanwhile, the strategy for reaching the platform adopted by rats was observed, on the 7th day, the platform was removed, the number of rats crossing the platform in 2 minutes, the residence time in the platform area, the residence time in the platform quadrants, the percentage of the swimming path length in the platform area quadrants to the total swimming path length, the average speed and the orientation angle were measured. After the water maze test was finished, the step-down test was performed, and the number of electric shocks (or called as the error number) received by each rat within 5 minutes was recorded as the learning performance. The test was performed again after 24 hours, namely, the memory retention test, and the latent period for stepping-down the platform for the first time and the error number in five minutes were recorded. After the step-down test was finished, the brain was taken quickly for pathological examination, and the pathological changes of the hippocampus and the cortex were observed.

[2] = tested on: rats with common carotid artery occlusion-induced vascular dementia; experiment: Step-down test, common carotid artery occlusion-induced vascular dementia rats; type: in vivo, rat; settings: step-down method, x ± s, succinate
Excerpt: as §1

[3] = Day 1, 0.7 mg/kg intragastric, 0.7 mg/kg
[4] = Day 1, 1.4 mg/kg intragastric, 1.4 mg/kg
[5] = Day 1, 2.8 mg/kg intragastric, 2.8 mg/kg
[6] = Day 2, 0.7 mg/kg intragastric, 0.7 mg/kg
[7] = Day 2, 1.4 mg/kg intragastric, 1.4 mg/kg
[8] = Day 2, 2.8 mg/kg intragastric, 2.8 mg/kg
[9] = Day 3, 0.7 mg/kg intragastric, 0.7 mg/kg
[10] = Day 3, 1.4 mg/kg intragastric, 1.4 mg/kg
[11] = Day 3, 2.8 mg/kg intragastric, 2.8 mg/kg
[12] = Day 4, 0.7 mg/kg intragastric, 0.7 mg/kg
[13] = Day 4, 1.4 mg/kg intragastric, 1.4 mg/kg
[14] = Day 4, 2.8 mg/kg intragastric, 2.8 mg/kg
[15] = Day 5, 0.7 mg/kg intragastric, 0.7 mg/kg
[16] = Day 5, 1.4 mg/kg intragastric, 1.4 mg/kg
[17] = Day 5, 2.8 mg/kg intragastric, 2.8 mg/kg
[18] = Day 6, 0.7 mg/kg intragastric, 0.7 mg/kg
[19] = Day 6, 1.4 mg/kg intragastric, 1.4 mg/kg
[20] = Day 6, 2.8 mg/kg intragastric, 2.8 mg/kg
[21] = 0.7 mg/kg intragastric, 0.7 mg/kg
[22] = 1.4 mg/kg intragastric, 1.4 mg/kg
[23] = 2.8 mg/kg intragastric, 2.8 mg/kg

## Nc1c2c(nc3c1CCCC3)CCCC2.O=C(O)CCC(=O)O [Crystal Form K, 9-amino-1,2,3,4,5,6,7,8-octahydroacridine succinate]
[1]; [3]
  adopted strategy for reaching the platform (the peripheral type and the random type %): 93.00%
  orientation angle for reaching the platform: 68.46 ± 25.21 °
  speed for reaching the platform: 21.26 ± 4.78 cm/s
  swimming path length for reaching the platform: 1602.41 ± 583.25 cm
  time for reaching the platform: 75.36 ± 14.23 s
[1]; [4]
  adopted strategy for reaching the platform (the peripheral type and the random type %): 86.50%
  orientation angle for reaching the platform: 69.28 ± 21.03 °
  speed for reaching the platform: 20.45 ± 9.24 cm/s
  swimming path length for reaching the platform: 1502.83 ± 613.11 cm
  time for reaching the platform: 73.45 ± 14.49 s
[1]; [5]
  adopted strategy for reaching the platform (the peripheral type and the random type %): 79.00%
  orientation angle for reaching the platform: 70.38 ± 18.48 °
  speed for reaching the platform: 19.88 ± 6.76 cm/s
  swimming path length for reaching the platform: 1211.27 ± 259.82 cm
  time for reaching the platform: 70.25 ± 9.82 s
[1]; [6]
  adopted strategy for reaching the platform (the peripheral type and the random type %): 83.50%
  orientation angle for reaching the platform: 60.47 ± 24.23 °
  speed for reaching the platform: 21.66 ± 8.76 cm/s
  swimming path length for reaching the platform: 1242.31 ± 438.47 cm
  time for reaching the platform: 57.33 ± 17.88 s
[1]; [7]
  adopted strategy for reaching the platform (the peripheral type and the random type %): 80.00%
  orientation angle for reaching the platform: 58.29 ± 17.83 °
  speed for reaching the platform: 24.28 ± 9.65 cm/s
  swimming path length for reaching the platform: 1219.38 ± 892.43 cm
  time for reaching the platform: 50.21 ± 20.11 s
[1]; [8]
  adopted strategy for reaching the platform (the peripheral type and the random type %): 76.50%
  orientation angle for reaching the platform: 57.88 ± 17.43 °
  speed for reaching the platform: 28.24 ± 4.72 cm/s
  swimming path length for reaching the platform: 1377.38 ± 328.92 cm
  time for reaching the platform: 47.36 ± 14.52 s
[1]; [9]
  adopted strategy for reaching the platform (the peripheral type and the random type %): 70.50%
  orientation angle for reaching the platform: 59.03 ± 16.89 °
  speed for reaching the platform: 20.12 ± 8.22 cm/s
  swimming path length for reaching the platform: 749.48 ± 427.45 cm
  time for reaching the platform: 45.78 ± 10.33 s
[1]; [10]
  adopted strategy for reaching the platform (the peripheral type and the random type %): 71.00%
  orientation angle for reaching the platform: 58.22 ± 10.34 °
  speed for reaching the platform: 21.34 ± 6.99 cm/s
  swimming path length for reaching the platform: 763.45 ± 414.55 cm
  time for reaching the platform: 44.29 ± 20.13 s
[1]; [11]
  adopted strategy for reaching the platform (the peripheral type and the random type %): 65.50%
  orientation angle for reaching the platform: 55.11 ± 16.99 °
  speed for reaching the platform: 20.10 ± 6.82 cm/s
  swimming path length for reaching the platform: 644.62 ± 582.37 cm
  time for reaching the platform: 40.67 ± 13.41 s
[1]; [12]
  adopted strategy for reaching the platform (the peripheral type and the random type %): 75.50%
  orientation angle for reaching the platform: 55.36 ± 19.61 °
  speed for reaching the platform: 21.70 ± 10.21 cm/s
  swimming path length for reaching the platform: 788.25 ± 300.86 cm
  time for reaching the platform: 40.55 ± 16.73 s
[1]; [13]
  adopted strategy for reaching the platform (the peripheral type and the random type %): 68.00%
  orientation angle for reaching the platform: 53.49 ± 14.67 °
  speed for reaching the platform: 20.28 ± 6.02 cm/s
  swimming path length for reaching the platform: 752.34 ± 467.22 cm
  time for reaching the platform: 39.57 ± 18.69 s
[1]; [14]
  adopted strategy for reaching the platform (the peripheral type and the random type %): 62.50%
  orientation angle for reaching the platform: 50.35 ± 15.5 °
  speed for reaching the platform: 21.00 ± 5.91 cm/s
  swimming path length for reaching the platform: 703.47 ± 231.68 cm
  time for reaching the platform: 37.88 ± 17.67 s
[1]; [15]
  adopted strategy for reaching the platform (the peripheral type and the random type %): 72.50%
  orientation angle for reaching the platform: 53.56 ± 14.56 °
  speed for reaching the platform: 21.42 ± 7.22 cm/s
  swimming path length for reaching the platform: 664.56 ± 562.88 cm
  time for reaching the platform: 31.42 ± 17.35 s
[1]; [16]
  adopted strategy for reaching the platform (the peripheral type and the random type %): 62.00%
  orientation angle for reaching the platform: 52.76 ± 19.40 °
  speed for reaching the platform: 21.26 ± 8.46 cm/s
  swimming path length for reaching the platform: 689.43 ± 267.98 cm
  time for reaching the platform: 34.62 ± 12.48 s
[1]; [17]
  adopted strategy for reaching the platform (the peripheral type and the random type %): 58.50%
  orientation angle for reaching the platform: 53.49 ± 23.42 °
  speed for reaching the platform: 22.93 ± 6.31 cm/s
  swimming path length for reaching the platform: 642.45 ± 386.45 cm
  time for reaching the platform: 28.41 ± 8.73 s
[1]; [18]
  adopted strategy for reaching the platform (the peripheral type and the random type %): 70.00%
  orientation angle for reaching the platform: 50.39 ± 22.30 °
  speed for reaching the platform: 19.52 ± 14.27 cm/s
  swimming path length for reaching the platform: 523.46 ± 237.12 cm
  time for reaching the platform: 32.45 ± 21.25 s
[1]; [19]
  adopted strategy for reaching the platform (the peripheral type and the random type %): 66.50%
  orientation angle for reaching the platform: 50.34 ± 20.04 °
  speed for reaching the platform: 22.54 ± 9.36 cm/s
  swimming path length for reaching the platform: 531.55 ± 169.37 cm
  time for reaching the platform: 28.21 ± 15.63 s
[1]; [20]
  adopted strategy for reaching the platform (the peripheral type and the random type %): 54.00%
  orientation angle for reaching the platform: 46.37 ± 26.8 °
  speed for reaching the platform: 21.32 ± 7.46 cm/s
  swimming path length for reaching the platform: 502.78 ± 482.65 cm
  time for reaching the platform: 29.10 ± 17.83 s
[1]; [21]
  Average speed: 23.62 ± 8.38 cm/s
  Number of crossing the platform: 5.67 ± 3.45
  Orientation angle: 27.88 ± 6.57 °
  Swimming path length in the platform area/total swimming path length × 100%: 26.88 ± 7.36%
  Time in the platform area: 2.87 ± 2.14 s
  Time in the platform quadrants: 35.61 ± 10.91 s
[1]; [22]
  Average speed: 24.69 ± 5.76 cm/s
  Number of crossing the platform: 7.25 ± 2.45
  Orientation angle: 24.69 ± 8.21 °
  Swimming path length in the platform area/total swimming path length × 100%: 28.74 ± 8.90%
  Time in the platform area: 2.18 ± 2.34 s
  Time in the platform quadrants: 37.88 ± 12.37 s
[1]; [23]
  Average speed: 25.45 ± 6.98 cm/s
  Number of crossing the platform: 7.49 ± 3.51
  Orientation angle: 23.57 ± 4.76 °
  Swimming path length in the platform area/total swimming path length × 100%: 27.39 ± 10.42%
  Time in the platform area: 2.56 ± 3.27 s
  Time in the platform quadrants: 34.52 ± 15.82 s
[2]; [21]
  Day 1, Error number: 9.21 ± 4.52
  Day 2, Error latency: 146.89 ± 60.45 s
  Day 2, Error number: 2.49 ± 2.35
[2]; [22]
  Day 1, Error number: 8.34 ± 3.78
  Day 2, Error latency: 178.46 ± 52.77 s
  Day 2, Error number: 3.34 ± 1.49
[2]; [23]
  Day 1, Error number: 8.46 ± 4.68
  Day 2, Error latency: 192.55 ± 87.48 s
  Day 2, Error number: 3.41 ± 1.88
